Measured values taken from US8884026B2, “Process for preparing rufinamide intermediate” (Laboratorios Lesvi, S.L., priority 2010, dated 2014).

Assays:
[1] = Grinding experiments in a ball mill, solid phase by PXRD; format: physicochemical; conditions: with solvent or without solvent
Description: Grinding experiments were performed in a Retsch MM400 Ball Mill using the following methodology: samples of 30 mg of phase R-5 of Rufinamide were grinded at a frequency of 20 s^−1 for 15 min, with a drop of solvent and without solvent.

[2] = Thermal stability experiments under vacuum, solid phase by PXRD; format: physicochemical; conditions: 40° C., 1 mbar, different periods of time
Description: Further advantages of polymorphic form R-5 arose from the significant good thermal stability that has shown over time. […] Thermal stability experiments were performed in a Binder Vacuum oven VD53 using the following methodology. Samples of from R-5 of Rufinamide were kept under vacuum, at 40° C. for different periods of times (at 1 mbar), see table 3 below. There were no significant differences in the PXRD patterns of the solids obtained after the thermal treatment.

- Change of polymorphic form by grinding [1]: does not change
- Change of polymorphic form under accelerated degradation (thermal stability) [2]: No changes in polymorphic form
Compound: NC(=O)c1cn(Cc2c(F)cccc2F)nn1 [R-5, 1-(2,6-difluorobenzyl)-1H-1,2,3-triazole-4-carboxamide]
